Molecules are shown by their SMILES. Read-outs that look alike come from different tables or passages of the source.

In the experiment the target is human TRPA1 channel (Homo sapiens (Human), UniProt O75762). The experiment is described as follows: hTRPA1 CHO Ca2+ FLIPR Tetra assay: block of cinnamaldehyde induced calcium influx. It counts as cell-based. As to conditions: CHO cells expressing TRPA1, Hill coefficient fixed to 1.5. In outline: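 TRPA1-expressing CHO cells loaded with calcium indicator dye (1 h 37° C, then 15 min room temperature) in HBSS/20 mM HEPES pH 7.4/0.02% BSA. IC50 from fits with fixed Hill coefficient.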
Sequence of human TRPA1 channel (O75762 whole entry): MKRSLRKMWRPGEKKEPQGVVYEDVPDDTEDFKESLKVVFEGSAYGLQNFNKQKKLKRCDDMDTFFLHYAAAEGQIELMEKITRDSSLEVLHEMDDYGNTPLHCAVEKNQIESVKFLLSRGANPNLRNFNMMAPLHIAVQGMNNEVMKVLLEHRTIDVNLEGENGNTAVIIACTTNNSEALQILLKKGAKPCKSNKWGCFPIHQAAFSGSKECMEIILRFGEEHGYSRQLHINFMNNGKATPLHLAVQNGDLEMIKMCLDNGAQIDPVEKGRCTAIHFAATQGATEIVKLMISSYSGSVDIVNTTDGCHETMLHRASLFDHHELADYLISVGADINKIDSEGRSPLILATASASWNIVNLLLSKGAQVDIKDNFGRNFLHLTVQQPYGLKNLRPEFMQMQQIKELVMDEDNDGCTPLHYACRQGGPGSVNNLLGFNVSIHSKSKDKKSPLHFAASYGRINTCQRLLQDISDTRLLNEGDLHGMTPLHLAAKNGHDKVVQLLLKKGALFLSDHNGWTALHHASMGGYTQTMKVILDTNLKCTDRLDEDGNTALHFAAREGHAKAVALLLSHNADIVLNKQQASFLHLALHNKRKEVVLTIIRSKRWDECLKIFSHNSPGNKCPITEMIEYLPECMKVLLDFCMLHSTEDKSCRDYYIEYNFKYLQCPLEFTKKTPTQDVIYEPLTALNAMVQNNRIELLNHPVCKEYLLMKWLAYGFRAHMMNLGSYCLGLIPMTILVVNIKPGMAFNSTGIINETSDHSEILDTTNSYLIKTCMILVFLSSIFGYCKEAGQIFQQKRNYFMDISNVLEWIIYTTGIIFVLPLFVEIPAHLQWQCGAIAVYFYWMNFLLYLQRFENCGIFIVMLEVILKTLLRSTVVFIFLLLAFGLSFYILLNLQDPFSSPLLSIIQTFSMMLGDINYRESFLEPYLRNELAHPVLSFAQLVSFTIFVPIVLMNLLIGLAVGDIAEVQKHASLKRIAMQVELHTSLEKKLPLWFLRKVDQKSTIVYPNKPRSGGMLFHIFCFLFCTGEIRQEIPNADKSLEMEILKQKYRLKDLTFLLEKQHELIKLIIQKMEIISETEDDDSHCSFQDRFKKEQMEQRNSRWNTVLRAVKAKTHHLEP

[1] abbreviates: hTRPA1 IC50 10 min, 10 minutes incubation with compound before cinnamaldehyde (about EC80).
Setting [2] is: hTRPA1 IC50 90 min, 90 minutes incubation with compound before cinnamaldehyde (about EC80).
Where [3] appears, read: read-out: hTRPA1 IC50 10 min, 10 minutes incubation with compound before cinnamaldehyde (about EC80).
The mark [4] stands for this setting: read-out: hTRPA1 IC50 90 min, 90 minutes incubation with compound before cinnamaldehyde (about EC80).

Regarding `COc1ccc([C@H]2C[C@H](c3noc(Cn4cnc5ncn(C)c5c4=O)n3)CO2)cc1` [Example 65, 1-((3-((3R,5R)-5-(4-methoxyphenyl)tetrahydrofuran-3-yl)-1,2,4-oxadiazol-5-yl)methyl)-7-methyl-1,7-dihydro-6H-purin-6-one], the IC50 came out at 137 nM under setting [1] and 67 nM under setting [2].

As for `Cc1cnn2ncn(Cc3nc([C@@H]4CO[C@@H](c5ccc(F)cc5)C4)no3)c(=O)c12` [Example 66, 3-((3-((3R,5R)-5-(4-fluorophenyl)tetrahydro-furan-3-yl)-1,2,4-oxadiazol-5-yl)methyl)-5-methylpyrazolo[5,1-f] [1,2,4]triazin-4(3H)-one], the IC50 was determined as 8.47 nM under setting [3] and 1.6 nM under setting [4].

Turning to `Cc1cncc2ncn(Cc3nc([C@@H]4CO[C@@H](c5ccc(F)cc5)C4)no3)c(=O)c12` [Example 67, 3-((3-((3R,5R)-5-(4-fluorophenyl)tetrahydro-furan-3-yl)-1,2,4-oxadiazol-5-yl)methyl)-5-methylpyrido[3,4-d] pyrimidin-4(3H)-one], the IC50 under setting [3] stood at 10.7 nM and the IC50 under setting [4] amounted to 1.2 nM.

Turning to `Cn1cnc2ncn(Cc3nc([C@@H]4CO[C@@H](c5ccc(C6CC6)cc5)C4)no3)c(=O)c21` [Example 68, 1-((3-((3R,5R)-5-(4-cyclopropylphenyl)tetrahydrofuran-3-yl)-1,2,4-oxadiazol-5-yl)methyl)-7-methyl-1,7-dihydro-6H-purin-6-one], the IC50 is, setting by setting: under setting [3], 46 nM; under setting [4], 27 nM.

In the case of `Cn1cnc2ncn(Cc3nc([C@@H]4CO[C@@H](c5ccc(F)cc5)C4)no3)c2c1=O` [Example 69, 7-((3-((3R,5R)-5-(4-fluorophenyl)tetrahydro-furan-3-yl)-1,2,4-oxadiazol-5-yl)methyl)-1-methyl-1,7-dihydro-6H-purin-6-one], the IC50 by setting is: under setting [3], 59.5 nM; under setting [4], 34 nM.

As to `Cn1cnc2nc(N)n(Cc3nc([C@@H]4CO[C@@H](c5ccc(Cl)cc5)C4)no3)c(=O)c21` [Example 71, 2-amino-1-((3-((3R,5R)-5-(4-chlorophenyl)tetrahydrofuran-3-yl)-1,2,4-oxadiazol-5-yl)methyl)-7-methyl-1,7-dihydro-6H-purin-6-one], the IC50 runs as follows: under setting [3], 18.4 nM; under setting [4], 1.5 nM.

As for `O=c1c2c(ncn1Cc1nc([C@@H]3CO[C@@H](c4ccc(Cl)cc4)C3)no1)CNCC2` [Example 73, 3-((3-((3R,5R)-5-(4-chlorophenyl)tetrahydro-furan-3-yl)-1,2,4-oxadiazol-5-yl)methyl)-5,6,7,8-tetrahydropyrido [3,4-d]pyrimidin-4(3H)-one], the IC50 under setting [4] amounted to 22 nM.

As to `Cn1cnc2nc(N)n(Cc3nc([C@@H]4CO[C@@H](c5ccc(S(F)(F)(F)(F)F)cc5)C4)no3)c(=O)c21` [Example 74, 2-amino-7-methyl-1-((3-((3R,5R)-5-(4-(pentafluoro-16-sulfanyl)phenyl)tetrahydrofuran-3-yl)-1,2,4-oxadiazol-5-yl)methyl)-1,7-dihydro-6H-purin-6-one], the IC50 by setting is: under setting [3], 170 nM; under setting [4], 120 nM.

Turning to `Cc1ncn2ncn(Cc3nc([C@@H]4CO[C@@H](c5ccc(F)cc5)C4)no3)c(=O)c12` [Example 75, 3-((3-((3R,5R)-5-(4-fluorophenyl)tetrahydro-furan-3-yl)-1,2,4-oxadiazol-5-yl)methyl)-5-methylimidazo[5,1-f][1,2,4]triazin-4(3H)-one], the IC50 under setting [4] amounted to 25 nM.

With `Cn1c(C(F)F)nc2ncn(Cc3nc([C@@H]4CO[C@@H](c5ccc(Cl)cc5)C4)no3)c(=O)c21` [Example 76, 1-((3-((3R,5R)-5-(4-chlorophenyl)tetrahydro-furan-3-yl)-1,2,4-oxadiazol-5-yl)methyl)-8-(difluoro-methyl)-7-methyl-1,7-dihydro-6H-purin-6-one], the IC50 under setting [4] was determined as 11 nM.

Turning to `NC(=O)c1ccc2c(=O)n(Cc3nc([C@@H]4CO[C@@H](c5ccc(Cl)cc5)C4)no3)cnc2n1` [Example 77, 3-((3-((3R,5R)-5-(4-chlorophenyl)tetrahydro-furan-3-yl)-1,2,4-oxadiazol-5-yl)methyl)-4-oxo-3,4-dihydropyrido[2,3-d] pyrimidine-7-carboxamide], the IC50 under setting [4] came out at 66 nM.

As to `Cc1nc(NC2CCN(C)CC2)n2ncn(Cc3nc([C@@H]4CO[C@@H](c5ccc(Cl)cc5)C4)no3)c(=O)c12` [Example 78, 3-((3-((3R,5R)-5-(4-chlorophenyl)tetrahydro-furan-3-yl)-1,2,4-oxadiazol-5-yl)methyl)-5-methyl-7-((1-methylpiperidin-4-yl)amino)imidazo[5,1-f] [1,2,4]triazin-4(3H)-one], the IC50 under setting [4] came out at 150 nM.

`Cc1nc(NC2CNC2)n2ncn(Cc3nc([C@@H]4CO[C@@H](c5ccc(Cl)cc5)C4)no3)c(=O)c12` [Example 79]: under setting [4], the IC50 stood at 92 nM.

For `Cc1nc(N2CC(CN)C2)n2ncn(Cc3nc([C@@H]4CO[C@@H](c5ccc(Cl)cc5)C4)no3)c(=O)c12` [Example 80, 7-(3-(aminomethyl)azetidin-1-yl)-3-((3-((3R,5R)-5-(4-chlorophenyl)tetrahydro-furan-3-yl)-1,2,4-oxadiazol-5-yl)methyl)-5-methylimidazo[5,1-f] [1,2,4]triazin-4(3H)-one], the IC50 under setting [4] came out at 180 nM.

As for `Cc1nc(N)n2ncn(Cc3nc([C@@H]4CO[C@@H](c5ccc(F)cc5)C4)no3)c(=O)c12` [Example 81, 7-amino-3-((3-((3R,5R)-5-(4-fluorophenyl)tetrahydro-furan-3-yl)-1,2,4-oxadiazol-5-yl)methyl)-5-methyl-imidazo[5,1-f][1,2,4]triazin-4(3H)-one], the IC50 under setting [4] worked out at 75 nM.

Turning to `O=c1c2cccc(=O)n2cnn1Cc1nc([C@@H]2CO[C@@H](c3ccc(Cl)cc3)C2)no1` [Example 82, 2-((3-((3R,5R)-5-(4-chlorophenyl)tetrahydro-furan-3-yl)-1,2,4-oxadiazol-5-yl)methyl)-2H-pyrido [1,2-d][1,2,4]triazine-1,6-dione], the IC50 under setting [4] amounted to 2.4 nM.

In the case of `Cn1cnc2ncn(Cc3nc([C@@H]4CO[C@@H](c5cc(F)c(Cl)c(F)c5)C4)no3)c(=O)c21` [Example 83, 1-((3-((3R,5R)-5-(4-chloro-3,5-difluorophenyl)tetrahydrofuran-3-yl)-1,2,4-oxadiazol-5-yl)methyl)-7-methyl-1,7-dihydro-6H-purin-6-one], the IC50 reads like this: under setting [1], 47.4 nM; under setting [2], 13 nM.

Consider `Cc1ncn2nc(N)n(Cc3nc([C@@H]4CO[C@@H](c5ccc(Cl)cc5)C4)no3)c(=O)c12` [Example 84, 2-amino-3-((3-((3R,5R)-5-(4-chlorophenyl)tetra-hydrofuran-3-yl)-1,2,4-oxadiazol-5-yl)methyl)-5-methylimidazo[5,1-f] [1,2,4]triazin-4(3H)-one], for which the IC50 is, setting by setting: under setting [3], 142 nM; under setting [4], 4.6 nM.

Consider `Cc1ncn2nc(N)n(Cc3nc([C@@H]4CO[C@@H](c5ccc(F)cc5)C4)no3)c(=O)c12` [Example 85, 2-amino-3-((3-((3R,5R)-5-(4-fluorophenyl)tetra-hydrofuran-3-yl)-1,2,4-oxadiazol-5-yl)methyl)-5-methylimidazo[5,1-f] [1,2,4]triazin-4(3H)-one], for which the IC50 under setting [3] was found to be 15.5 nM and the IC50 under setting [4] was 6 nM.

For `Cn1cnc2ncn(Cc3nc([C@@H]4CO[C@@H](c5ccc(S(F)(F)(F)(F)F)cc5)C4)no3)c(=O)c21` [Example 86, 7-methyl-1-((3-((3R,5R)-5-(4-(pentafluoro-l6-sulfanyl)phenyl)tetrahydro-furan-3-yl)-1,2,4-oxadiazol-5-yl)methyl)-1,7-dihydro-6H-purin-6-one], the IC50 under setting [3] worked out at 1560 nM and the IC50 under setting [4] amounted to 930 nM.

On to `Nc1ccc2c(=O)n(Cc3nc([C@@H]4CO[C@@H](c5ccc(Cl)cc5)C4)no3)ncc2n1` [Example 87, 2-amino-6-((3-((3R,5R)-5-(4-chlorophenyl)tetra-hydrofuran-3-yl)-1,2,4-oxadiazol-5-yl)methyl) pyrido[2,3-d]pyridazin-5(6H)-one], for which the IC50 under setting [3] stood at 10.5 nM and the IC50 under setting [4] was 3.5 nM.

Regarding `CN1CCc2c(ncn(Cc3nc([C@@H]4CO[C@@H](c5ccc(Cl)cc5)C4)no3)c2=O)C1` [Example 88, 3-((3-((3R,5R)-5-(4-chlorophenyl)tetrahydro-furan-3-yl)-1,2,4-oxadiazol-5-yl)methyl)-7-methyl-5,6,7,8-tetrahydropyrido [3,4-d]pyrimidin-4(3H)-one], the IC50 by setting is: under setting [3], 2720 nM; under setting [4], 450 nM.

With `Nc1nc2ncccc2c(=O)n1Cc1nc([C@@H]2CO[C@@H](c3ccc(F)cc3)C2)no1` [Example 89, 2-amino-3-((3-((3R,5R)-5-(4-fluorophenyl)tetrahydrofuran-3-yl)-1,2,4-oxadiazol-5-yl)methyl) pyrido[2,3-d]pyrimidin-4(3H)-one], the IC50 by setting is: under setting [3], 18.7 nM; under setting [4], 2.9 nM.

Take `O=c1c2ccnnc2ncn1Cc1nc([C@@H]2CO[C@@H](c3ccc(F)cc3)C2)no1` [Example 103, 6-[[3-[(3R,5R)-5-(4-fluorophenyl)tetrahydro-furan-3-yl]-1,2,4-oxadiazol-5-yl]methyl]pyrimido[4,5-c]pyridazin-5-one]: the half-inhibitory concentration (IC50) under setting [3] was 71.7 nM and the IC50 under setting [4] was determined as 89 nM.

`Cc1ccnc2cnn(Cc3nc([C@@H]4CO[C@@H](c5ccc(F)cc5)C4)no3)c(=O)c12` [Example 104, 6-[[3-[(3R,5R)-5-(4-fluorophenyl)tetrahydro-furan-3-yl]-1,2,4-oxadiazol-5-yl]methyl]-4-methyl-pyrido[2,3-d] pyridazin-5-one]: the IC50 reads like this: under setting [3], 7.2 nM; under setting [4], 6.7 nM.

Source of the values: patent US10710994B2, “Oxadiazole transient receptor potential channel inhibitors” (Genentech, Inc., priority 2018, dated 2020).
